# Experimental data published in paper PMC12876990, “Targeting secreted PLA2 interactions with EGFR and vimentin to arrest prostate tumour growth” (Cell Death & Disease, 2025).
# Square brackets hold non-standard residues; d marks the D form. Peptide text beside a SMILES is read from it. 2Nal = N[C@@H](Cc1ccc2ccccc2c1)C(=O)O
# Key:
# [1] = 28-day oral toxicity study: haematology analysis; format: in vivo, male Sprague Dawley rats; settings: for MCHC: calculated value
# Description: (§1) Blood analyse s (haematology and biochemistry) w ere performed on all animals on Day 29 (main groups) or Day 43 (recovery groups). Approximately 4 mL of blood was taken from ea ch animal by cardiac puncture using a 10 mL syringe and 21-gauge needle. The procedure involved anaesthetising by intraperitoneal injection of sodi um pentobarbitone using a 2 mL sterile plastic syringe attached to a 26-gauge needle (Terumo).
# For each blood sampling, the blood was divided into two aliquots: (i) one was placed into a tube containing EDTA (for whole blood and EDTA plasma), (ii) one aliquot into a Li-heparin tube.
# 3.9.1. Haematology analysis
# The following parameters were analysed: Red blood cell (RBC), haemoglobin (Hb), haematocrit (Hct), mean corpuscular volume (MCV), mean corpuscular haemoglobin (MCH), mean corpuscular haemoglobin concentration (MCHC), platelet count (PLT), mean platelet volume (MPV), white blood count (WBC), neutrophil (Neut), lymphocyte (Lymph), monocytes (Mono), eosinophil (Eos), basophil (Baso).
# Results and methods of analysis were attached in an appendix to the report (Appendix D Haematology and Biochemistry). Blood smear s for cell morphology were prepared. By convention only abnormal findings on smear evaluation were reported. […]
# (§2) Haematology and Biochemistry). […]
# (§3) (Appendix C Study Data Spreadsheets). […]
# [2] = 28-day oral toxicity study: biochemistry analysis; format: in vivo, male Sprague Dawley rats
# Description: as §1
# For each blood sampling, the blood was divided into two aliquots: (i) one was placed into a tube containing EDTA (for whole blood and EDTA plasma), (ii) one aliquot into a Li-heparin tube. […]
# Results and methods of analysis were attached in an appendix to the report (Appendix D Haematology and Biochemistry). Blood smear s for cell morphology were prepared. […]
# 3.9.2. Biochemistry analysis
# The following parameters were analysed: glucose (Glu), urea, creatinine (Creat), total protein (TP), albumin (ALB), albumin/globulin ratio (A:G), total bilirubin (TBil), alkaline phosphatase (ALP), aspartate aminotransferase (AST), alanine aminotransferase (ALT), creatine kinase (CK), chole sterol (Chol), calcium (Ca), phosphate (Phos), Ca:P ratio, sodium (Na), potassium (K), Na:K ratio, chloride (Cl), globulin (Glob), gamma glutamyl transferase (GGT) and triglycerides (Trig).
# as §2, §3
# [3] = Toxicity and serum enzyme levels in PCa xenograft model mice; format: in vivo
# Description: Fig. 1 Derived from the structure of hGIIA, cF and c2 are orally absorbed, cell permeable and non-toxic. a Structure of hGIIA showing disulphide bonds (yellow) and the location of the peptide sequence ^70FLSYK^74 (cyan), which was cyclised to produce pentapeptide cF, then modified to produce c2. b Plasma concentrations of tritiated cF (red) and c2 (blue) following subcutaneous (sc) administration (circles) or oral (po) administration (squares) at 5 mg/kg to BALB/c mice (mean ± SE, n = 4 per time point). Tissue concentrations of c cF and d c2 following sc administration determined in the liver (blue) and kidney (brown) (mean ± SE). Dashed lines indicate estimated background levels of tritium in tissues due to tissue blood content (10% of peak plasma concentration). e–i Following po administration of c2 at 100 mg/kg to male rats (n = 5 per group), levels of c2 were measured in e plasma, f kidney, g faeces, h urine and i liver at timepoints indicated via LCMS/MS (mean ± SE). j Serum enzyme levels of markers of kidney function (creatinine), liver damage (AST and ALT) and heart damage (CK) in PCa xenograft model mice in response to treatment with vehicle (po, 3 x weekly for 6.1 ± 1.6 weeks), cF (10 mg/kg, po, 3 x weekly for 5.4 ± 0.9 weeks) or c2 (10 mg/kg, po, 3 x weekly for 4.8 ± 0.8 weeks) (n = 4, mean ± SE). Data were obtained by the South Eastern Area Laboratory Services Pathology Laboratory at Prince of Wales Hospital, Randwick, Australia. k PCa cell lines LNCaP, PC-3, and DU145 cells incubated with 100 µM c2 (green) for 24 hours with DAPI (blue), scale bar 10 µm (representative cells of n = 3 biological replicates, 5 cells per replicate).
# A key failing of previous enzymatic inhibitors of hGIIA was toxicity, resulting in increased incidence of myocardial infarction in a phase III clinical trial. Thus, the toxicity profile of novel hGIIA inhibitors is critically important in evaluating new inhibitors. […] Extensive histopathology was performed on all animals in the control and high dose groups sacrificed on day 29, with no difference observed between the treated groups and the vehicle control group by any measure. […] In light of the toxicity associated with the myocardial infarction study, data from this c2 toxicity study relevant to heart toxicity are shown in Table 1. Heart wet weight was not affected by either low or high dose relative to vehicle, indicating the compound has no significant pro-hypertrophy effect at these doses. The lack of effect of c2 on gross necropsy or histopathology scores also supports the preclinical safety of the compound in the heart. Importantly, c2 has no effect on serum potassium levels or the Na/K ratio, since hypokalemia (low potassium) is highly arrythmogenic. […] It is of interest also that serum alanine transaminase is unaffected by c2 at the doses tested, since this marker was raised three-fold over the normal range in 6.3-fold more patients on varespladib than placebo in the VISTA acute coronary syndrome trial of this sPLA2 inhibitor [13].
# [4] = Day 43, Gr 5 recovery, 20 mg/kg
smiles,measurement,setting,value
"CC(C)C[C@@H]1NC(=O)[C@H](Cc2ccc3ccccc3c2)NC(=O)[C@H](CCCNC(=N)N)NC(=O)[C@H](Cc2ccc3ccccc3c2)NC(=O)[C@H](CO)NC1=O [c2, cyclo-((2-Nal)-Leu-Ser-(2-Nal)-Arg)] (cyclo([2Nal]LS[2Nal]R))",Hb,"[1]; Day 29, Gr 2, 1 mg/kg",157 ± 4.7 g/L
same,PLT,"[1]; Day 29, Gr 2, 1 mg/kg",1184 ± 127.7 x 109 / L
same,MCHC,"[1]; Day 29, Gr 2, 1 mg/kg",344 ± 5.1 g/L
same,Hb,"[1]; Day 29, Gr 3, 20 mg/kg",159 ± 3.0 g/L
same,PLT,"[1]; Day 29, Gr 3, 20 mg/kg",1191 ± 93.8 x 109 / L
same,MCHC,"[1]; Day 29, Gr 3, 20 mg/kg",351 ± 4.0 g/L
same,blood haematology,[1]; Day 29 and Day 43,no obvious test item related effect
same,Baso,[1]; [4],0 L⁻¹
same,Hb,[1]; [4],154 ± 1.8 g/L
same,PLT,[1]; [4],1182 ± 143.7 x 109 / L
same,MCHC,[1]; [4],353 ± 4.2 g/L
same,ALT (serum alanine transaminase),[2]; 1 mg/kg,61.1 ± 15.53 IU/L
same,CK (serum creatine kinase),[2]; 1 mg/kg,164 ± 47.4 IU/L
same,K (serum potassium),[2]; 1 mg/kg,3.59 ± 0.137 mM
same,Na/K ratio,[2]; 1 mg/kg,40.5 ± 1.59
same,ALT (serum alanine transaminase),[2]; 20 mg/kg,64.7 ± 19.01 IU/L
same,CK (serum creatine kinase),[2]; 20 mg/kg,140 ± 34.4 IU/L
same,K (serum potassium),[2]; 20 mg/kg,3.66 ± 0.295 mM
same,Na/K ratio,[2]; 20 mg/kg,39.9 ± 3.16
same,ALP,"[2]; Day 29, Gr 2, 1 mg/kg",219 ± 37.4 IU/L
same,AST,"[2]; Day 29, Gr 2, 1 mg/kg",173 ± 69.4 IU/L
same,CK,"[2]; Day 29, Gr 2, 1 mg/kg",164 ± 47.4 IU/L
same,Na,"[2]; Day 29, Gr 2, 1 mg/kg",145 ± 0.7 mmol/L
same,ALP,"[2]; Day 29, Gr 3, 20 mg/kg",234 ± 35.7 IU/L
same,ALT,"[2]; Day 29, Gr 3, 20 mg/kg",64.7 ± 19.01 IU/L
same,AST,"[2]; Day 29, Gr 3, 20 mg/kg",163 ± 76.8 IU/L
same,CK,"[2]; Day 29, Gr 3, 20 mg/kg",140 ± 34.4 IU/L
same,Na,"[2]; Day 29, Gr 3, 20 mg/kg",145 ± 0.8 mmol/L
same,ALP,[2]; [4],144 ± 24.2 IU/L
same,ALT,[2]; [4],62 ± 20.2 IU/L
same,AST,[2]; [4],236 ± 106.7 IU/L
same,CK,[2]; [4],117 ± 36.0 IU/L
same,Na,[2]; [4],144 ± 0.4 mmol/L
same,TP,[2]; [4],62 ± 1.7 g/L
same,Cl,"[2]; rat, in vivo, 1 mg/kg",101 ± 1.2 mmol/L
same,"serum creatinine, aspartate aminotransferase, alanine aminotransferase, creatine kinase levels",[3]; 10 mg/kg po thrice weekly,no significant changes
same,damage to organs,[3]; 10 mg/kg thrice weekly for 10 weeks,no observable damage to organs
same,gross toxicity,[3]; max dosages of 10 mg/kg thrice weekly for 10 weeks,No gross toxicity
